Measurements: ChEMBL document CHEMBL6115030, “Systematic All-Hydrocarbon Stapling Analysis for Cecropin A Generates a Potent and Stable Antimicrobial Peptide” (J Med Chem, 2025)
Converted amounts (≈) assume the structure as drawn. The source made the active and inactive calls. The calls are words filed in the database; no cut-off is given here. Bridge positions count the residues as written; N and C are the ends. Square brackets hold non-standard residues; d marks the D form. Peptide text beside a SMILES is read from it. S5 = C=CCCC[C@](C)(N)C(=O)O

Assays:
[1] = Hemolytic activity in human RBC assessed as hemolysis incubated for 1 hr by microplate reader; assay type: toxicity, cell-based, Erythrocyte; conditions: erythrocyte, 1 h
Klebsiella pneumoniae = experiment: Antibacterial activity against Carbapenem-resistant Klebsiella pneumoniae assessed as inhibition of bacterial growth measured after 24 hrs by broth microdilution method; assay type: functional
Pseudomonas aeruginosa = experiment: Antibacterial activity against Pandrug-resistant Pseudomonas aeruginosa assessed as inhibition of bacterial growth measured after 24 hrs by broth microdilution method; assay type: functional
[2] = Stability of the compound in human serum assessed as peptide degradation by RP-HPLC analysis; assay type: ADME, cell-free; conditions: read-out: T50 (converted)
[3] = Stability of the compound in human serum assessed as retention time by RP-HPLC analysis; assay type: ADME, cell-free
[4] = Stability of the compound in human serum assessed as remaining peptide by RP-HPLC analysis; assay type: ADME, cell-free
NIH3T3 = experiment: Cytotoxicity against mouse NIH3T3 cells assessed as cell viability measured upto 50 uM incubated for 24 hrs by CCK-8 assay; assay type: toxicity, cell-based; conditions: nih3t3, 24 h
Cell membrane = experiment: Induction of Outer membrane damage in Escherichia coli assessed as pore formation and surface rupture at 5 uM measured after 24 hrs by SEM imaging analysis; assay type: subcellular
Escherichia coli [5] = experiment: Induction of metabolism related pathways in Escherichia coli assessed as lipid metabolism pathway mRNAs at 12.5 uM measured after 2 hrs incubation by PCR analysis; assay type: functional, organism-based
Escherichia coli [6] = experiment: Induction of metabolism related pathways in Escherichia coli assessed as protein synthesis pathway mRNAs at 12.5 uM measured after 2 hrs incubation by PCR analysis; assay type: functional, organism-based
Escherichia coli [7] = experiment: Induction of outer membrane synthesis related pathways in Escherichia coli assessed as change in OmpC gene expression at 12.5 uM measured after 2 hrs incubation by PCR analysis; assay type: functional, organism-based
Escherichia coli [8] = experiment: Induction of outer membrane synthesis related pathways in Escherichia coli assessed as change in OmpX gene expression at 12.5 uM measured after 2 hrs incubation by PCR analysis; assay type: functional, organism-based
Escherichia coli [9] = experiment: Induction of LPS transport pathway related genes in Escherichia coli assessed as change in LptA gene expression at 12.5 uM measured after 2 hrs incubation by PCR analysis; assay type: functional, organism-based
Escherichia coli [10] = experiment: Induction of LPS transport pathway related genes in Escherichia coli assessed as change in LptE gene expression at 12.5 uM measured after 2 hrs incubation by PCR analysis; assay type: functional, organism-based
Escherichia coli [11] = experiment: In vivo antibacterial activity against Escherichia coli intraperitoneally injected into C57BL/6 mouse peritonitis model assessed as reduction in bacterial load in blood at 2.5 mg/kg, ip measured after 48 hrs relative to control; assay type: functional, organism-based
Escherichia coli [12] = experiment: In vivo antibacterial activity against Escherichia coli intraperitoneally injected into C57BL/6 mouse peritonitis model assessed as reduction in bacterial load in lung at 2.5 mg/kg, ip measured after 48 hrs relative to control; assay type: functional, organism-based
Mus musculus = experiment: In vivo anti-inflammatory efficacy in Escherichia coli intraperitoneally injected into C57BL/6 mouse peritonitis model assessed as reduction in IL-6 level in blood at 2.5 mg/kg, ip measured after 48 hrs by ELISA; assay type: functional, organism-based

CC[C@H](C)[C@H](NC(=O)CNC(=O)[C@H](CC(=O)O)NC(=O)[C@H](CCCNC(=N)N)NC(=O)[C@@H](NC(=O)[C@H](CC(N)=O)NC(=O)[C@H](CCC(N)=O)NC(=O)CNC(=O)[C@@H](NC(=O)[C@H](CCCCN)NC(=O)[C@H](CCC(=O)O)NC(=O)[C@@H](NC(=O)[C@H](CCCCN)NC(=O)[C@H](CCCCN)NC(=O)[C@H](Cc1ccccc1)NC(=O)[C@H](CC(C)C)NC(=O)[C@H](CCCCN)NC(=O)[C@H](Cc1c[nH]c2ccccc12)NC(=O)[C@H](CCCCN)NC(C)=O)[C@@H](C)CC)C(C)C)[C@@H](C)CC)C(=O)N[C@H](C(=O)N[C@@H](CCCCN)C(=O)N[C@@H](C)C(=O)NCC(=O)N1CCC[C@H]1C(=O)N[C@@H](C)C(=O)N[C@H](C(=O)N[C@@H](C)C(=O)N[C@H](C(=O)N[C@H](C(=O)NCC(=O)N[C@@H](CCC(N)=O)C(=O)N[C@@H](C)C(=O)N[C@@]1(C)CCC/C=C\CCC[C@@](C)(C(N)=O)NC(=O)[C@H](C)NC(=O)[C@H]([C@@H](C)CC)NC(=O)[C@H](CCC(N)=O)NC1=O)C(C)C)C(C)C)C(C)C)[C@@H](C)CC (Ac-KWKLFKKIEKVGQNIRDGIIKAGPAVAVVGQA[S5]QIA[S5]-NH2; staple (Z) 33-37)
Activity [1]: Non-toxic
MIC (Klebsiella pneumoniae): 6.25 µM (≈ 25.4 µg/mL)
MIC (Pseudomonas aeruginosa): 12.5 µM (≈ 50.8 µg/mL)
half-life [2]: 9.85 h
Retention_time [3]: 25.17 min
Stability [4]: > 50%
Activity (NIH3T3): Non-toxic
Activity (Cell membrane): Active
Activity (Escherichia coli [5]): Active
Activity (Escherichia coli [6]): Active
Activity (Escherichia coli [7]): Active
Activity (Escherichia coli [8]): Active
Activity (Escherichia coli [9]): Active
Activity (Escherichia coli [10]): Active
Activity (Escherichia coli [11]): Active; Compound Showed Enhanced Bacterial Elimination Than Cec-0 And Compound Showed Comparable Bacterial Elimination To Polymyxin B
Activity (Escherichia coli [12]): Active; Compound Showed Enhanced Bacterial Elimination Than Cec-0
Activity (Mus musculus): Active
